# In ChEMBL document CHEMBL3046832, “Synthesis of some sulfonamides, disubstituted sulfonylureas or thioureas and some structurally related variants. A class of promising antitumor agents” (2007):
# What was measured:
# Assay type in all cases: functional
# [1] = Cytotoxicity against Homo sapiens (human) melanoma cells after 48 hr by SRB assay; settings: Melanoma cell
# MCF7 [2] = assay: Cytotoxicity against Homo sapiens (human) MCF7 cells assessed as cellular growth after 48 hr by Alamar blue assay; parameters: concentration or dose not given beside the values
# SF-268 [3] = assay: Cytotoxicity against Homo sapiens (human) SF268 cells assessed as cellular growth after 48 hr by Alamar blue assay; parameters: concentration or dose not given beside the values
# OVCAR-5 = assay: Cytotoxicity against Homo sapiens (human) OVCAR5 cells after 48 hr by SRB assay; settings: OVCAR-5, 48 h
# [4] = Cytotoxicity against Homo sapiens (human) prostate cancer cells after 48 hr by SRB assay; settings: Cancer cell lines
# MDA-MB-231 = assay: Cytotoxicity against Homo sapiens (human) MDA-MB-231 cells after 48 hr by SRB assay; settings: MDA-MB-231, 48 h
# CCRF-CEM = assay: Cytotoxicity against Homo sapiens (human) CCRF-CEM cells after 48 hr by SRB assay
# HCC 2998 = assay: Cytotoxicity against Homo sapiens (human) HCC2998 cells after 48 hr by SRB assay; settings: HCC 2998, 48 h
# IGROV-1 = assay: Cytotoxicity against Homo sapiens (human) IGROV1 cells after 48 hr by SRB assay; settings: IGROV-1, 48 h
# SK-MEL-2 = assay: Cytotoxicity against Homo sapiens (human) SK-MEL-2 cells after 48 hr by SRB assay; settings: SK-MEL-2, 48 h
# NCI-H460 = assay: Cytotoxicity against Homo sapiens (human) NCI-H460 cells after 48 hr by SRB assay; settings: NCI-H460, 48 h
# LOX IMVI = assay: Cytotoxicity against Homo sapiens (human) LOXIMVI cells after 48 hr by SRB assay
# BT-549 = assay: Cytotoxicity against Homo sapiens (human) BT549 cells after 48 hr by SRB assay; settings: BT-549, 48 h
# [5] = Cytotoxicity against Homo sapiens (human) colon cancer cells after 48 hr by SRB assay; settings: Cancer cell lines
# SNB-19 = assay: Cytotoxicity against Homo sapiens (human) SNB19 cells after 48 hr by SRB assay; settings: SNB-19, 48 h
# HOP-92 = assay: Cytotoxicity against Homo sapiens (human) HOP92 cells after 48 hr by SRB assay; settings: HOP-92, 48 h
# UO-31 = assay: Cytotoxicity against Homo sapiens (human) UO31 cells after 48 hr by SRB assay; settings: UO-31, 48 h
# PC-3 = assay: Cytotoxicity against Homo sapiens (human) PC3 cells after 48 hr by SRB assay; settings: PC-3, 48 h
# OVCAR-3 = assay: Cytotoxicity against Homo sapiens (human) OVCAR3 cells after 48 hr by SRB assay; settings: OVCAR-3, 48 h
# SW-620 = assay: Cytotoxicity against Homo sapiens (human) SW620 cells after 48 hr by SRB assay; settings: SW-620, 48 h
# [6] = Cytotoxicity against Homo sapiens (human) non-small cell lung cancer cells after 48 hr by SRB assay; settings: Cancer cell lines
# [7] = Cytotoxicity against Homo sapiens (human) leukemia cells after 48 hr by SRB assay; settings: Leukemia cell
# SF-268 [8] = assay: Cytotoxicity against Homo sapiens (human) SF268 cells after 48 hr by SRB assay; settings: SF-268, 48 h
# SK-OV-3 = assay: Cytotoxicity against Homo sapiens (human) SKOV3 cells after 48 hr by SRB assay; settings: SK-OV-3, 48 h
# SF-295 = assay: Cytotoxicity against Homo sapiens (human) SF295 cells after 48 hr by SRB assay; settings: SF-295, 48 h
# KM12 = assay: Cytotoxicity against Homo sapiens (human) KM12 cells after 48 hr by SRB assay; settings: KM12, 48 h
# M14 = assay: Cytotoxicity against Homo sapiens (human) M14 cells after 48 hr by SRB assay; settings: M14, 48 h
# EKVX = assay: Cytotoxicity against Homo sapiens (human) EKVX cells after 48 hr by SRB assay
# MCF7 [9] = assay: Cytotoxicity against Homo sapiens (human) MCF7 cells after 48 hr by SRB assay; settings: MCF7, 48 h
# MDA-MB-435 = assay: Cytotoxicity against Homo sapiens (human) MDA-MB-435 cells after 48 hr by SRB assay; settings: MDA-MB-435, 48 h
# RXF 393 = assay: Cytotoxicity against Homo sapiens (human) RXF393 cells after 48 hr by SRB assay; settings: RXF 393, 48 h
# SK-MEL-28 = assay: Cytotoxicity against Homo sapiens (human) SK-MEL-28 cells after 48 hr by SRB assay; settings: SK-MEL-28, 48 h
# [10] = Cytotoxicity against Homo sapiens (human) renal cancer cells after 48 hr by SRB assay; settings: Cancer cell lines
# [11] = Cytotoxicity against Homo sapiens (human) breast cancer cells after 48 hr by SRB assay; settings: Cancer cell lines
# HCT-15 = assay: Cytotoxicity against Homo sapiens (human) HCT15 cells after 48 hr by SRB assay; settings: HCT-15, 48 h
# SF-539 = assay: Cytotoxicity against Homo sapiens (human) SF539 cells after 48 hr by SRB assay; settings: SF-539, 48 h
# [12] = Cytotoxicity against Homo sapiens (human) CNS cancer cells after 48 hr by SRB assay; settings: Cancer cell lines
# 786-0 = assay: Cytotoxicity against Homo sapiens (human) 786-0 cells after 48 hr by SRB assay; settings: 786-0, 48 h
# SK-MEL-5 = assay: Cytotoxicity against Homo sapiens (human) SK-MEL-5 cells after 48 hr by SRB assay; settings: SK-MEL-5, 48 h
# UACC-257 = assay: Cytotoxicity against Homo sapiens (human) UACC257 cells after 48 hr by SRB assay; settings: UACC-257, 48 h
# NCI-H522 = assay: Cytotoxicity against Homo sapiens (human) NCI-H522 cells after 48 hr by SRB assay; settings: NCI-H522, 48 h
# [13] = Cytotoxicity against Homo sapiens (human) ovarian cancer cells after 48 hr by SRB assay; settings: Cancer cell lines
# COLO 205 = assay: Cytotoxicity against Homo sapiens (human) COLO205 cells after 48 hr by SRB assay; settings: COLO 205, 48 h
# UACC-62 = assay: Cytotoxicity against Homo sapiens (human) UACC62 cells after 48 hr by SRB assay; settings: UACC-62, 48 h
# HOP-62 = assay: Cytotoxicity against Homo sapiens (human) HOP62 cells after 48 hr by SRB assay; settings: HOP-62, 48 h
# [14] = Cytotoxicity against Homo sapiens (human) NCI-H322 cells after 48 hr by SRB assay; settings: NCI-H322, 48 h
smiles,measurement,setting,value
O=C(c1ccccc1)n1c(-c2ccccc2)cs/c1=N\S(=O)(=O)c1ccc(N2N=C3c4ccccc4CC3C2c2cccs2)cc1 (stereo not given),GI50,[1],51.6 µM
same,TGI,[1],98.2 µM
same,Activity,MCF7 [2],<=32%
same,Activity,SF-268 [3],<=32%
same,GI50,OVCAR-5,34.3 µM
same,GI50,[4],43.1 µM
same,TGI,[4],> 100 µM
same,GI50,MDA-MB-231,41.3 µM
same,GI50,CCRF-CEM,41.3 µM
same,GI50,HCC 2998,14 µM
same,GI50,IGROV-1,> 100 µM
same,GI50,SK-MEL-2,> 100 µM
same,GI50,NCI-H460,> 100 µM
same,GI50,LOX IMVI,30.7 µM
same,GI50,BT-549,69.7 µM
same,GI50,[5],53.3 µM
same,TGI,[5],90.4 µM
same,GI50,SNB-19,59.2 µM
same,GI50,HOP-92,> 100 µM
same,GI50,UO-31,98.1 µM
same,GI50,PC-3,39.2 µM
same,GI50,OVCAR-3,55.2 µM
same,GI50,SW-620,58.8 µM
same,GI50,[6],43.7 µM
same,TGI,[6],83.9 µM
same,GI50,[7],32.9 µM
same,TGI,[7],80.3 µM
same,GI50,SF-268 [8],> 100 µM
same,GI50,SK-OV-3,> 100 µM
same,GI50,SF-295,37.1 µM
same,GI50,KM12,38.3 µM
same,GI50,M14,33 µM
same,GI50,EKVX,40.7 µM
same,GI50,MCF7 [9],> 100 µM
same,GI50,MDA-MB-435,31.1 µM
same,GI50,RXF 393,37 µM
same,GI50,SK-MEL-28,> 100 µM
same,GI50,[10],44.8 µM
same,TGI,[10],95.3 µM
same,GI50,[11],65.3 µM
same,TGI,[11],> 100 µM
same,GI50,HCT-15,61.4 µM
same,GI50,SF-539,58.6 µM
same,GI50,[12],64.5 µM
same,TGI,[12],> 100 µM
same,GI50,786-0,21.8 µM
same,GI50,SK-MEL-5,24.4 µM
same,GI50,UACC-257,45.7 µM
same,GI50,NCI-H522,23.7 µM
same,GI50,[13],72 µM
same,TGI,[13],> 100 µM
same,GI50,COLO 205,98.1 µM
same,GI50,UACC-62,27.3 µM
same,GI50,HOP-62,23.7 µM
same,GI50,[14],22.3 µM
O=C1CCS/C(=N\S(=O)(=O)c2ccc(N3N=C4c5ccccc5CC4C3c3cccs3)cc2)N1C(=O)c1ccccc1 (stereo not given),GI50,[1],15.3 µM
same,TGI,[1],21.2 µM
same,Activity,MCF7 [2],<=32%
same,Activity,SF-268 [3],<=32%
same,GI50,OVCAR-5,25.8 µM
same,GI50,[4],26.2 µM
same,TGI,[4],> 100 µM
same,GI50,MDA-MB-231,5.77 µM
same,GI50,CCRF-CEM,15 µM
same,GI50,HCC 2998,18.2 µM
same,GI50,IGROV-1,14.5 µM
same,GI50,SK-MEL-2,29.4 µM
same,GI50,NCI-H460,26.6 µM
same,GI50,LOX IMVI,7.61 µM
same,GI50,BT-549,4.77 µM
same,GI50,[5],27.4 µM
same,TGI,[5],52.6 µM
same,GI50,SNB-19,45.7 µM
same,GI50,HOP-92,25.4 µM
same,GI50,UO-31,30.7 µM
same,GI50,PC-3,29.2 µM
same,GI50,OVCAR-3,27.4 µM
same,GI50,SW-620,13.1 µM
same,GI50,[6],21.7 µM
same,TGI,[6],71.4 µM
same,GI50,[7],37.6 µM
same,TGI,[7],80.1 µM
same,GI50,SF-268 [8],13.7 µM
same,GI50,SK-OV-3,52.8 µM
same,GI50,SF-295,32.7 µM
same,GI50,KM12,29.4 µM
same,GI50,M14,10.8 µM
same,GI50,EKVX,22.1 µM
same,GI50,MCF7 [9],9.1 µM
same,GI50,MDA-MB-435,22.7 µM
same,GI50,RXF 393,6.31 µM
same,GI50,SK-MEL-28,50.2 µM
same,GI50,[10],17.7 µM
same,TGI,[10],38.1 µM
same,GI50,[11],25.4 µM
same,TGI,[11],73.5 µM
same,GI50,HCT-15,15.1 µM
same,GI50,SF-539,23.8 µM
same,GI50,[12],36.7 µM
same,TGI,[12],68.2 µM
same,GI50,786-0,14.1 µM
same,GI50,SK-MEL-5,2.56 µM
same,GI50,UACC-257,0.33 µM
same,GI50,NCI-H522,14.4 µM
same,GI50,[13],36.9 µM
same,TGI,[13],42.1 µM
same,GI50,COLO 205,66.5 µM
same,GI50,UACC-62,6.37 µM
same,GI50,HOP-62,31.1 µM
same,GI50,[14],32.5 µM
